The record followed here is US7223759B2, “Antibacterial 3,5-diaminopiperidine-substituted aromatic and heteroaromatic compounds” (Anadys Pharmaceuticals, Inc., priority 2003, dated 2007).

Usually MIC stands for the lowest concentration that inhibits growth of the organism.

For the first experiment, the system named is Escherichia coli (ATCC25922) or Staphylococcus aureus (ATCC25923). As to the kind of experiment: Antibacterial MIC, microdilution method in Mueller-Hinton medium. To be noted: Escherichia coli, 18 h, MIC in E. coli or S. aureus; two-fold serial dilutions 64 to 0.5 μg/ml in duplicate; 18 hours of incubation at 35° C.; read-out: Potency (MIC). It is filed as cell-based. An outline of the steps: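 Read after 18 h incubation at 35° C, MIC is the lowest compound level that blocked growth. Compounds were tested in duplicate over 64–0.5 μg/ml two-fold dilutions using Mueller-Hinton microdilution per NCCLS standard.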
A general note: Dilution methods test growth across graded concentrations, often in twofold steps.
On to `Cc1ccc(S(=O)(=O)N(Cc2ccccc2)c2ccc(Nc3nc(NCCCn4ccnc4)nc(N4C[C@H](N)C[C@H](N)C4)n3)cc2O)cc1` [N-Benzyl-N-{4-[4-((3R,5S)-3,5-diamino-piperidin-1-yl)-6-(3-imidazol-1-yl-propylamino)-[1,3,5]triazin-2-ylamino]-2-hydroxy-phenyl}-4-methyl-benzenesulfonamide], for which the MIC is less than 64 µg/mL.

Regarding `Cc1ccc(S(=O)(=O)N(Cc2ccccc2)c2ccc(Nc3nc(NC4CCNCC4)nc(N4C[C@H](N)C[C@H](N)C4)n3)cc2O)cc1` [N-Benzyl-N-{4-[4-((3R,5S)-3,5-diamino-piperidin-1-yl)-6-(piperidin-4-ylamino)-[1,3,5]triazin-2-ylamino]-2-hydroxy-phenyl}-4-methyl-benzenesulfonamide], the MIC was less than 64 µg/mL.

For `COc1nc(Nc2ccc(N(Cc3ccccc3)S(=O)(=O)c3ccc(C)cc3)c(O)c2)nc(N2CCCCC2)n1.Cl` [N-Benzyl-N-{4-[4-((3R,5S)-3,5-diamino-piperidin-1-yl)-6-methoxy-[1,3,5]triazin-2-ylammino]-2-hydroxy-phenyl}-4-methyl-benzenesulfonamide], the MIC was less than 16 µg/mL.

On to `Cc1ccc(S(=O)(=O)N(Cc2ccccc2)c2ccc(Nc3nc(N4CCNCC4)nc(N4C[C@H](N)C[C@H](N)C4)n3)cc2O)cc1` [N-Benzyl-N-{4-[4-((3R,5S)-3,5-diamino-piperidin-1-yl)-6-piperazin-1-yl-[1,3,5]triazin-2-ylamino]-2-hydroxy-phenyl}-4-methyl-benzenesulfonamide], for which the MIC was less than 64 µg/mL.

For `Cc1ccc(S(=O)(=O)N(Cc2ccccc2)c2ccc(Nc3nc(N4CCCCC4)nc(N4CCN(c5ccncc5)CC4)n3)cc2O)cc1.Cl` [N-Benzyl-N-{4-[4-((3R,5SD)-3,5-diamino-piperidin-1-yl)-6-(4-pyridin-4-yl-piperazin-1-yl)-[1,3,5]triazin-2-ylamino]-2-hydroxy-phenyl}-4-methyl-benzenesulfonamide], the MIC is less than 16 µg/mL.

With `CN1CCCC1CCNc1nc(N2C[C@H](N)C[C@H](N)C2)nc(N2C[C@H](N)C[C@H](N)C2)n1.Cl` (stereo partly drawn) [N-[2-(1-medthyl-pyrrolidin-2-yl)-ethyl]-4,6-Bis-((3R,5S)-3,5-diamino-piperidin-1-yl)-[1,3,5]triazine-2-amine], the MIC is greater than 64 µg/mL.

The same experiment, now with this note: Escherichia coli, 18 h, read-out: Potency (MIC).
On to `N[C@@H]1C[C@H](N)CN(c2nc(Nc3ccc4c(c3)-c3ccccc3C4=O)nc(N3C[C@H](N)C[C@H](N)C3)n2)C1` [N-(9-oxo-9H-fluoren-3-yl)-4,6-Bis-((3R,5S)-3,5-diamino-piperidin-1-yl)-[1,3,5]triazine-2-amine], for which the minimum inhibitory concentration (MIC) is less than 16 µg/mL.

For `N[C@@H]1C[C@H](N)CN(c2nc(Nc3ccc4c(c3)Cc3ccccc3-4)nc(N3C[C@H](N)C[C@H](N)C3)n2)C1` [N-(9H-fluoren-2-yl)-4,6-Bis-((3R,5S)-3,5-diamino-piperidin-1-yl)-[1,3,5]triazine-2-amine], the MIC is less than 16 µg/mL.

As to `C[C@H](Nc1nc(N2C[C@H](N)C[C@H](N)C2)nc(N2C[C@H](N)C[C@H](N)C2)n1)c1cccc2ccccc12` [N-((S)-1-naphthalen-1-yl-ethyl)-4,6-Bis-((3R,5S)-3,5-diamino-piperidin-1-yl)-[1,3,5]triazine-2-amine], the MIC is greater than 64 µg/mL.

As to `Cc1ccc(S(=O)(=O)N(Cc2ccccc2)c2ccc(Nc3nc(N4C[C@H](N)C[C@H](N)C4)nc(N4C[C@@H](N)[C@@H](N)C4)n3)cc2O)cc1` [N-Benzyl-N-{4-[4-((3R,5S)-3,5-diamino-piperidin-1-yl)-6-((3R,4S)-3,4-diamino-pyrrolidin-1-yl)-[1,3,5]triazin-2-ylamino]-2-hydroxy-phenyl}-4-methyl-benzenesulfonamide], the MIC was less than 16 µg/mL.

Regarding `Cc1ccc(S(=O)(=O)N(Cc2ccccc2)c2ccc(Nc3nc(N4C[C@H](N)C[C@H](N)C4)nc(N4C[C@@H](O)[C@@H](O)C4)n3)cc2O)cc1` [N-Benzyl-N-{4-[4-((3R,5S)-3,5-diamino-piperidin-1-yl)-6-((3R,4S)-3,4-dihydroxy-pyrrolidin-1-yl)-[1,3,5]triazin-2-ylamino]-2-hydroxy-phenyl}-4-methyl-benzenesulfonamide], the MIC was less than 64 µg/mL.

Regarding `Cc1ccc(S(=O)(=O)N(Cc2ccccc2)c2ccc(Nc3nc(N4C[C@H](N)C[C@H](N)C4)nc(N4C[C@H](O)C[C@@H](O)C4)n3)cc2O)cc1` [N-Benzyl-N-{4-[4-((3R,5S)-3,5-diamino-piperidin-1-yl)-6-((3R,5R)-3,5-dihydroxy-piperidin-1-yl)-[1,3,5]triazin-2-ylamino]-2-hydroxy-phenyl}-4-methyl-benzenesulfonamide], the MIC was less than 64 µg/mL.

Consider `Cc1ccc(S(=O)(=O)N(Cc2ccccc2)c2ccc(Nc3nc(N4C[C@H](N)C[C@H](N)C4)nc(N4CCC[C@@H](O)C4)n3)c(O)c2)cc1` [N-Benzyl-N-{4-[4-((3R,5S)-3,5-diamino-piperidin-1-yl)-6-((R)-3-hydroxy-piperidin-1-yl)-[1,3,5]triazin-2-ylamino]-3-hydroxy-phenyl}-4-methyl-benzenesulfonamide], for which the MIC was less than 64 µg/mL.

For `Cc1ccc(S(=O)(=O)N(Cc2ccccc2)c2ccc(Nc3nc(NC4CCCNC4)nc(N4C[C@H](N)C[C@H](N)C4)n3)cc2O)cc1` (stereo partly drawn) [N-Benzyl-N-{4-[4-((3R,5S)-3,5-diamino-piperidin-1-yl)-6-(piperidin-3-ylamino)-[1,3,5]triazin-2-ylamino]-2-hydroxy-phenyl}-4-methyl-benzenesulfonamide], the MIC was less than 64 µg/mL.

As for `Cc1ccc(S(=O)(=O)N(Cc2ccccc2)c2ccc(Nc3nc(N4C[C@H](N)C[C@H](N)C4)nc(N4C[C@H](CN)C[C@H](CN)C4)n3)c(O)c2)cc1` [N-Benzyl-N-{4-[4-((3S,5R)-3,5-bis-(aminomethyl)-piperidin-1-yl)-6-((3R,5S)-3,5-diamino-piperidin-1-yl)-[1,3,5]triazin-2-ylamino]-3-hydroxy-phenyl}-4-methyl-benzenesulfonamide], the MIC was less than 64 µg/mL.

For the compound `Cc1ccc(S(=O)(=O)N(Cc2ccccc2)c2ccc(Nc3nc(N(CCN)CCN)nc(N4C[C@H](N)C[C@H](N)C4)n3)c(O)c2)cc1` [N-Benzyl-N-{4-[4-[bis-(2-amino-ethyl)-amino]-6-((3R,5S)-3,5-diamino-piperidin-1-yl)-[1,3,5]triazin-2-ylamino]-3-hydroxy-phenyl}-4-methyl-benzenesulfonamide], the MIC was less than 64 µg/mL.

Consider `COc1ccc(NC(=O)c2cccc(O)c2O)c(Nc2nc(N3C[C@H](N)C[C@H](N)C3)nc(N3C[C@H](N)C[C@H](N)C3)n2)c1` [N-[2-(2,3-dihydroxy-benzoylamino)-5-methoxy-phenyl]-4,6-Bis-((3R,5S)-3,5-diamino-piperidin-1-yl)-[1,3,5]triazine-2-amine], for which the MIC was greater than 64 µg/mL.

As to `N[C@@H]1C[C@H](N)CN(c2nc(NCCc3ccc(Cl)cc3Cl)nc(N3C[C@H](N)C[C@H](N)C3)n2)C1` [N-[2-(2,4-dichloro-phenyl)-ethyl]-4,6-Bis-((3R,5S)-3,5-diamino-piperidin-1-yl)-[1,3,5]triazine-2-amine], the MIC is greater than 64 µg/mL.

Consider `COc1ccc(NC(=O)c2ccc(O)cc2O)c(Nc2nc(N3C[C@H](N)C[C@H](N)C3)nc(N3C[C@H](N)C[C@H](N)C3)n2)c1` [N-[2-(2,4-dihydroxy-benzoylamino)-5-methoxy-phenyl]-4,6-Bis-((3R,5S)-3,5-diamino-piperidin-1-yl)-[1,3,5]triazine-2-amine], for which the MIC is greater than 64 µg/mL.

As for `COc1ccc(NC(=O)c2cccc(C)c2O)c(Nc2nc(N3C[C@H](N)C[C@H](N)C3)nc(N3C[C@H](N)C[C@H](N)C3)n2)c1` [N-[2-(2-hydroxy-3-methyl-benzoylamino)-5-methoxy-phenyl]-4,6-Bis-((3R,5S)-3,5-diamino-piperidin-1-yl)-[1,3,5]triazine-2-amine], the MIC was greater than 64 µg/mL.

For `COc1ccc(Nc2nc(N3C[C@H](N)C[C@H](N)C3)nc(N3C[C@H](N)C[C@H](N)C3)n2)c(NC(=O)c2cccc([N+](=O)[O-])c2O)c1` [N-[2-(2-hydroxy-3-nitro-benzoylamino)-4-methoxy-phenyl]-4,6-Bis-((3R,5S)-3,5-diamino-piperidin-1-yl)-[1,3,5]triazine-2-amine], the MIC is greater than 64 µg/mL.

In the case of `COc1ccc(NC(=O)c2ccc(C)cc2O)c(Nc2nc(N3C[C@H](N)C[C@H](N)C3)nc(N3C[C@H](N)C[C@H](N)C3)n2)c1` [N-[2-(2-hydroxy-4-methyl-benzoylamino)-5-methoxy-phenyl]-4,6-Bis-((3R,5S)-3,5-diamino-piperidin-1-yl)-[1,3,5]triazine-2-amine], the MIC was greater than 64 µg/mL.

Take `N[C@@H]1C[C@H](N)CN(c2nc(NCCNc3ccc([N+](=O)[O-])cn3)nc(N3C[C@H](N)C[C@H](N)C3)n2)C1` [N-[2-(5-nitro-pyridin-2-ylamino)-ethyl]-4,6-Bis-((3R,5S)-3,5-diamino-piperidin-1-yl)-[1,3,5]triazine-2-amine]: the MIC was greater than 64 µg/mL.

Take `Cc1ccc(S(=O)(=O)Nc2ccccc2Nc2nc(N3C[C@H](N)C[C@H](N)C3)nc(N3C[C@H](N)C[C@H](N)C3)n2)cc1` [N-[2-(toluene-4-sulfonylamino)-phenyl]-4,6-Bis-((3R,5S)-3,5-diamino-piperidin-1-yl)-[1,3,5]triazine-2-amine]: the MIC is greater than 64 µg/mL.

Consider `N#CCCNS(=O)(=O)c1ccc(Cl)c(Nc2nc(N3C[C@H](N)C[C@H](N)C3)nc(N3C[C@H](N)C[C@H](N)C3)n2)c1` [N-[2-chloro-5-(2-cyano-ethylsulfamoyl)-phenyl]-4,6-Bis-((3R,5S)-3,5-diamino-piperidin-1-yl)-[1,3,5]triazine-2-amine], for which the MIC was greater than 64 µg/mL.

In the case of `N[C@@H]1C[C@H](N)CN(c2nc(Nc3ccc(NC(=O)c4cccc([N+](=O)[O-])c4O)cc3O)nc(N3C[C@H](N)C[C@H](N)C3)n2)C1` [N-[2-hydroxy-4-(2-hydroxy-3-nitro-benzoylamino)-phenyl]-4,6-Bis-((3R,5S)-3,5-diamino-piperidin-1-yl)-[1,3,5]triazine-2-amine], the minimal inhibitory concentration (MIC) is less than 64 µg/mL.
